From patent publication US9357924B2, “Composition, method, system and kit for optical electrophysiology” (The Research Foundation of State University of New York, priority 2006, dated 2016)
Values joined by “and” are separate entries in the source; they are usually repeats but may differ in a detail not shown here. Identical values can stand only once.

Tests used:
blood-perfused pig heart = experiment: Optical mapping of blood-perfused Langendorff pig heart; details: for ΔF/F (relative fluorescence): blood perfusion
Procedure: Blood-perfused Langendorff preparation of pig heart was implemented. Briefly, approximately 1.5 liters of modified Tyrode's solution (37° C., composition in mmol/L: Na^+, 157; K^+, 4.7; Ca^2+, 1.5; Mg^2+, 0.7, H2PO4^−0.5, Cl^−137.6, HCO3^−28.0, glucose 11.0, dextran 4% and insulin 10 U) was infused in an external jugular vein, and blood-Tyrode's mixture was collected at equal rate from a carotid artery. The heart was perfused with blood-Tyrode mixture in a Langendorff apparatus. The blood-Tyrode mixture will be oxygenated (CO2 5%/02 95%), heated (37° C.) and filtered using a Liliput hollow fiber oxygenator (COBE Cardiovascular, Arvada, Co). Collector tubes were inserted into the right and left ventricles to collect all the blood coming out of the coronary sinus and Thebesian veins. Thereafter, the heart was “sealed” to ensure that all the outflow of perfused blood is collected for recirculation. The heart was placed in a warm bath with heated water-jacketed transparent glass wall and was superfused with an oxygenated, heated Tyrode solution. After a 20-30 min stabilization verified by a vigorous contraction and normal sinus rhythm, the excitation-contraction uncoupler diacetyl-monoxime (DAM) was added to the perfusate (15 mmol/l) to stop contractions. ECG was monitored throughout the experiment to ensure stable capture of the ventricles by the pacing electrode. […]
Blood-perfused pig heart imaging was done in a similar way. Briefly, the dye was excited with a 400-watt tungsten-halogen lamp (excitation filter, 650+/−20 nm) and the fluorescence was collected above 715 nm using a Computar objective lens (HG1208FCS_HSP, F0.8, focal length 12 mm,) and externally cooled CCD camera (Dalsa CA-D1-0128T, Ontario, Canada) at the frame rate of 400-800 fps and 12-bit resolution.
The acquired images were offline processed to improve their quality. The background autofluorescence (endogenous fluorescence recorded under the same conditions before dye injection) was subtracted from each frame to obtain the voltage-dependent optical signal. To allow temporal alignment and subsequent averaging of successive paced action potentials, the trigger for the pacing stimulus was recorded as a single pixel in the movie frames. […] Dye loading and washout dynamics were assessed from averaged sets of OP recordings (3-5 specimens). To facilitate comparison, fluorescence and OP signals were normalized to their peak values (defined as the difference between maximum and minimum values) in some figures.
For the dye loading dynamics, the time to reach peak values of background fluorescence (membrane voltage independent component of the dye molecules fluorescence), OP, and ΔF/F were determined by simple visual inspection of the dynamic plots. […]

[1] = tested on: mouse heart cardiac tissue; experiment: Optical action potential recording in Langendorff-perfused mouse heart (Tyrode's solution); details: mean ± SD
Procedure: (§1) The dye testing experiments were performed on typical model animals: mice (n=6), rat (n=11), guinea pig (n=6), pig (n=13). All experimental protocols conformed to the Guide for the Care and Use of Laboratory Animals and were approved by the Committee for the Humane Use of Animal of the SUNY Upstate Medical University. Mice (C57BL/6, 20-25 g) were injected with ketamine (200 mg/kg IP), rats (Sprague Dawley, 300-400 g female) and guinea pigs were injected with heparin (550 U/100 g), and euthanized by sodium phentobarbital (1 ml/100 g for rats and 0.75 ml/100 g for guinea pigs). The heart was then immediately excised and placed in ice-cold cardioplegia solution (CPS) composed of (in mmol/l) 280 Glucose, 13.44 KCl, 12.6 NaHCO3, 34 Mannitol. […] Perfusion and superfusion temperatures were continuously monitored and kept at 36±1° C. by using two sets of glass heating coils and heated-refrigerated circulators. […]
(§2) After a 20-30 min stabilization period during which the perfusion flow and ECG was monitored, the excitation-contraction uncoupler diacetyl-monoxime (DAM) was added to the perfusate (15 mmol/l) to stop contractions of cardiac tissue. […]

[2] = tested on: pig cardiac tissue (right free ventricular wall); experiment: Optical action potential recording in Tyrode-perfused pig right ventricular wall preparation; details: for ΔF/F (relative fluorescence, maximal fluorescence efficacy): pig tissue, Tyrode-perfused, epifluorescence; for ΔF/F (relative fluorescence): pig, transillumination mode, thick cardiac tissue ~10 mm
Procedure: The dye testing experiments were performed on typical model animals: mice (n=6), rat (n=11), guinea pig (n=6), pig (n=13). All experimental protocols conformed to the Guide for the Care and Use of Laboratory Animals and were approved by the Committee for the Humane Use of Animal of the SUNY Upstate Medical University. Mice (C57BL/6, 20-25 g) were injected with ketamine (200 mg/kg IP), rats (Sprague Dawley, 300-400 g female) and guinea pigs were injected with heparin (550 U/100 g), and euthanized by sodium phentobarbital (1 ml/100 g for rats and 0.75 ml/100 g for guinea pigs). The heart was then immediately excised and placed in ice-cold cardioplegia solution (CPS) composed of (in mmol/l) 280 Glucose, 13.44 KCl, 12.6 NaHCO3, 34 Mannitol. After removal of extraneous tissues, the aorta was cannulated and Langendorff perfusion was started with a standard oxygenated Tyrode's solution (composed of (in mmol/l) 130 NaCl, 24 NaHCO3, 1.2 NaH2PO4, 1.0 MgCl2, 5.6 Glucose, 4.0 KCl, 1.8 CaCl2; buffered to a pH of 7.4) at 80 mm Hg and 36° C. Young pigs (15-20 kg,) were heparinized (500 IU, IV) and subsequently anesthetized with sodium phentobarbital (35 mg/kg IV). The heart was rapidly removed and Langendorff-perfused with cold (4° C.) CPS. The right free ventricular wall was quickly excised, and the right coronary artery was cannulated. Non-perfused tissue was removed, leaving a preparation of typically 5×5 cm and a thickness of 8 mm. The preparation was stretched on a plastic frame and perfused with a standard oxygenated Tyrode's solution at 80 mm Hg and 36° C. Whole cannulated heart (mouse, rat or guinea pig) or stretched pig tissue was put into special transparent chamber and superfused with the same solution at a rate of 30-40 ml/min. Perfusion and superfusion temperatures were continuously monitored and kept at 36±1° C. by using two sets of glass heating coils and heated-refrigerated circulators. Electrodes were sutured to whole hearts or inserted into pig tissue to monitor ECG. All preparations were continuously paced at the frequency 6.7 Hz, 5 Hz, 3.3 Hz and 2 Hz for mouse, rat, guinea pig, and pig, respectively.
After a 20-30 min stabilization period during which the perfusion flow and ECG was monitored, the excitation-contraction uncoupler diacetyl-monoxime (DAM) was added to the perfusate (15 mmol/l) to stop contractions of cardiac tissue. After a 20 minute equilibration, the preparation was stained by injecting voltage-sensitive dye solution into the perfusion flow (a bolus injection near cannula).
Solid dyes were dissolved in DMSO to make 10-50 mM stock solution that was kept frozen. […]

[3] = tested on: mouse heart cardiac tissue; experiment: Dye washout dynamics of OP amplitude in mouse heart; details: mean ± SD
Procedure: as §1
(§3) The acquired images were offline processed to improve their quality. The background autofluorescence (endogenous fluorescence recorded under the same conditions before dye injection) was subtracted from each frame to obtain the voltage-dependent optical signal. To allow temporal alignment and subsequent averaging of successive paced action potentials, the trigger for the pacing stimulus was recorded as a single pixel in the movie frames. […]

[4] = tested on: guinea pig heart cardiac tissue; experiment: Optical action potential recording in Langendorff-perfused guinea pig heart (Tyrode's solution); details: mean ± SD
Procedure: as §1, §2

rat heart cardiac tissue [5] = experiment: Optical action potential recording in Langendorff-perfused rat heart (Tyrode's solution); details: mean ± SD
Procedure: as §1, §2

rat heart cardiac tissue [6] = experiment: Dye washout dynamics of OP amplitude in rat heart; details: mean ± SD
Procedure: as §1, §3

[7] = Absorbance spectra in ethanol; format: physicochemical
Procedure: Absorbance spectra were measured in ethanol (panel A), and a model membrane made of multilamellar lipid vesicles (MLV) composed of egg phosphatidyl choline (panel B). The absorbance spectra reveal single maxima that represent a high level of the dye purity and absence of different configurational isomers. The absorption maxima for JPW6003 in ethanol occurred at 603 nm. For the dye JPW 6033 all absorption maxima are shifted 20-40 nm to shorter wavelengths, but absorbance is 2-3 times higher. Though the long wavelength absorbance peaks range from 561 nm to 603 nm in ethanol, and 526 nm to 539 nm in MLV, in practical applications both dyes can be efficiently excited over a much broader range (500-700 nm), allowing one to optimize excitation for the dye in different tissues, including blood perfused tissue.

pig cardiac tissue = experiment: Dye washout dynamics of OP amplitude in pig cardiac tissue; details: mean ± SD
Procedure: as §1, §3

[8] = tested on: guinea pig heart cardiac tissue; experiment: Dye washout dynamics of OP amplitude in guinea pig heart; details: mean ± SD
Procedure: as §1, §3

various cardiac tissues = experiment: Dye performance in various cardiac tissues compared with di-4-ANEPPS; details: in any of the tested species
Procedure: as §1, with “Mannitol. After removal of extraneous tissues, the aorta was cannulated and Langendorff perfusion was started with a standard oxygenated Tyrode's solution (composed of (in mmol/l) 130 NaCl, 24 NaHCO3, 1.2 NaH2PO4, 1.0 MgCl2, 5.6 Glucose, 4.0 KCl, 1.8 CaCl2; buffered to a pH of 7.4) at 80 mm Hg and 36° C. Young pigs (15-20 kg,) were heparinized (500 IU, IV) and subsequently anesthetized with sodium phentobarbital (35 mg/kg IV).” for “Mannitol.”

[9] = Voltage-dependent fluorescence response in voltage-clamped hemispherical lipid bilayer (HLB) model membrane
Procedure: Voltage-dependent spectra in model membranes were measured by a voltage-clamped hemispherical lipid bilayer (HLB) apparatus modified for near infrared fluorescence detection. In this experiment, light from a tungsten lamp is sent through a monochromator and then focused onto the bottom of the HLB, stained with dye from the external aqueous bathing solution. The monochromator is then scanned over the wavelength range of interest while a train of ±50 mV voltage steps are applied to the membrane at a frequency of 40 Hz and the modulation of the detected light signal is measured with a lockin amplifier. The transmitted light signal is collected at 180° from the incident light. Fluorescence is collected at 90° via fiber optic light guide through cutoff filters at 715 nm.

| absorption maxima (excitation wavelength) [7] [nm] | Compound | time of slow increase in total fluorescence and OP (dye loading) (blood-perfused pig heart; dye injected during recirculated-blood-perfusion) [h] | ΔF/F (relative fluorescence) (blood-perfused pig heart; pig, Tyrode's-perfused loading) [%] | ΔF/F (relative fluorescence) (blood-perfused pig heart; pig, blood-perfused loading (dye injected into blood flow)) [%] | steady-state level of deltaF/F during blood perfusion (blood-perfused pig heart; pig, regardless of loading in Tyrode's or directly into blood flow) [%] | ΔF/F (relative fluorescence, maximal fluorescence efficacy) [1] [%] | ΔF/F (relative fluorescence, maximal fluorescence efficacy) [2] | ΔF/F (relative fluorescence) [2] | 50% washout time of OP amplitude [3] [h] | ΔF/F (relative fluorescence, maximal fluorescence efficacy) [4] [%] | ΔF/F (relative fluorescence, maximal fluorescence efficacy) (rat heart cardiac tissue [5]) [%] | 50% washout time of OP amplitude (rat heart cardiac tissue [6]) [h] | 50% washout time of OP amplitude (pig cardiac tissue) [h] | 50% washout time of OP amplitude [8] [h] | OP amplitude higher than that of di-4-ANEPPS (various cardiac tissues) | delta F/F (relative fluorescence) in a model membrane [9] [%] |
| --- | --- | --- | --- | --- | --- | --- | --- | --- | --- | --- | --- | --- | --- | --- | --- | --- |
| 603 | CCCCN(CCCC)c1ccc2cc(/C=C/C=C/c3cc[n+](CCC[N+](C)(C)C)c4ccccc34)ccc2c1.[Br-].[Br-] [JPW6003, Di-4-ANBDQPQ] | ~1 | 12 | 5.5 ± 1.5 | ~5 | 9.1 ± 1.4 | 18.7% and 18.7 ± 1.1% | approximately 20% | 1.4 ± 0.2 | 11.3 ± 1.0 | 11.1 ± 1.6 | 2.50 ± 0.28 | 3.33 ± 0.31 | 2.80 ± 0.31 | – | – |
| – | Di-4-ANBDQBS [JPW6033] | – | – | – | – | 10 ± 1.5 | 15 ± 1.0% | 14 ± 1.1% | 1.0 ± 0.1 | 12.5 ± 1.4 | 14 ± 1.5 | 1.8 ± 0.2 | 2.50 ± 0.28 | 2.0 ± 0.2 | 50-100% | – |
| – | CCCCN(CCCC)c1ccc2cc(/C=C/c3cc[n+](CCCS(=O)(=O)[O-])cc3)ccc2c1 [di-4-ANEPPS] | – | – | – | – | – | – | – | – | – | – | – | – | – | – | 9 |
